According to US7563787B2, “Substituted pyrazole compounds” (Miikana Therapeutics, Inc., priority 2005, dated 2009):

Assays:
Assay type in all cases: biochemical
Aurora B kinase = molecular target: T1, Aurora B kinase (Homo sapiens, UniProt Q96GD4); test: Aurora B (Aurora 1) Inhibition Assay; conditions: 100 μM compound; ATP 50 μM; 16 h
T1 construct: purchased BPS Biosciences, San Diego, Calif
Method: Assays for Aurora B kinase inhibition were carried out similarly to those for Aurora A kinase (see above) with the following modifications. Aurora B kinase (BPS Biosciences, San Diego, Calif.) was used as the enzyme, at a concentration was 2.5 μg/mL. The ATP concentration was 50 μM, and the kinase reaction was allowed to proceed for 16 h. Sodium orthovanadate (20 μM) was added to the buffer to inhibit contaminating phosphatases.

CDK2/cyclin A = molecular target: T2, CDK2/cyclin A (Homo sapiens, UniProt P24941); test: Kinase Selectivity Assay; conditions: read-out: Percent Inhibition at 1 μM; note: ATP at apparent Km or 100 µM
T2 construct: purchased Invitrogen, Carlsbad, Calif
Method: (§1) Compounds were assayed for inhibitory activity against a panel of different kinase enzymes at a concentration of 1 μM. Where appropriate, full-length enzymes or catalytically active fragments, with N-terminal or C-terminal His- or GST-tags, were used (Invitrogen, Carlsbad, Calif.). Test compounds were initially diluted to 100× test concentration in 100% DMSO. This 100× concentration was then diluted to a 4× working concentration in Kinase Buffer (50 mM HEPES pH 7.5, 0.01% Brij-35, 10 mM MgCl2, 1 mM EGTA) and 2.5 μL was then added to a low volume NBS, 384-well plate (Corning, Corning, N.Y.). Five μL of a 2× peptide/kinase mixture (Invitrogen, Carlsbad, Calif.), as appropriate (listed in Table 3), was then added and the reaction was then initiated by addition of 2.5 μL of a 4× working concentration of ATP in Kinase Buffer.

FLT1 (VEGFR1) = molecular target: T3, FLT1 (VEGFR1) (Homo sapiens, UniProt P17948); test: Kinase Selectivity Assay; conditions: read-out: Percent Inhibition at 1 μM; note: ATP at apparent Km or 100 µM
T3 construct: full-length enzymes or catalytically active fragments; purchased Invitrogen
Method: as §1

MAP2K1 (MEK1) = molecular target: T4, MAP2K1 (MEK1) (Homo sapiens, UniProt Q02750); test: Kinase Selectivity Assay; conditions: read-out: Percent Inhibition at 1 μM; note: ATP at apparent Km or 100 µM
T4 construct: full-length enzymes or catalytically active fragments; purchased Invitrogen
T4 sequence (Q02750 whole entry, the tested form may be a part): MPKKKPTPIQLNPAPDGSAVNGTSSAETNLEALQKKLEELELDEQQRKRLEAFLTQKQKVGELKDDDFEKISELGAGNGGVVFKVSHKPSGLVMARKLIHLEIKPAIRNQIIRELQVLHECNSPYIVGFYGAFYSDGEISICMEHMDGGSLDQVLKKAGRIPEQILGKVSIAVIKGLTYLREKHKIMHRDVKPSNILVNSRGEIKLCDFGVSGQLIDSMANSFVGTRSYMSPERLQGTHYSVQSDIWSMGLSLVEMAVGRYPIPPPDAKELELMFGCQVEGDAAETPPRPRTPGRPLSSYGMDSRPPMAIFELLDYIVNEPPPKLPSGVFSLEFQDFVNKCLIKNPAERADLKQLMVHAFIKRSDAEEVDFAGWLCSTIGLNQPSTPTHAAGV
Method: as §1

ABL1 = molecular target: T5, ABL1 (Homo sapiens, UniProt P00519); test: Kinase Selectivity Assay; conditions: read-out: Percent Inhibition at 1 μM; note: ATP at apparent Km or 100 µM
T5 construct: purchased Invitrogen, Carlsbad, Calif
Method: as §1

IRAK4 = molecular target: T6, IRAK4 (Homo sapiens, UniProt Q9NWZ3); test: Kinase Selectivity Assay; conditions: read-out: Percent Inhibition at 1 μM; note: ATP at apparent Km or 100 µM
T6 construct: full-length enzymes or catalytically active fragments; purchased Invitrogen
Method: as §1

ABL1 T315I = molecular target: T7, ABL1 T315I (Homo sapiens, UniProt P00519, T315I); test: Kinase Selectivity Assay; conditions: read-out: Percent Inhibition at 1 μM; note: ATP at apparent Km or 100 µM
T7 construct: purchased Invitrogen, Carlsbad, Calif
Method: as §1

AURKB (Aurora B) = molecular target: T8, AURKB (Aurora B) (Homo sapiens, UniProt Q96GD4); test: Kinase Selectivity Assay; conditions: read-out: Percent Inhibition at 1 μM; note: ATP at apparent Km or 100 µM
T8 construct: purchased Invitrogen, Carlsbad, Calif
Method: as §1

YES1 = molecular target: T9, YES1 (Homo sapiens, UniProt P07947); test: Kinase Selectivity Assay; conditions: read-out: Percent Inhibition at 1 μM; note: ATP at apparent Km or 100 µM
T9 construct: purchased Invitrogen, Carlsbad, Calif
T9 sequence (P07947 whole entry): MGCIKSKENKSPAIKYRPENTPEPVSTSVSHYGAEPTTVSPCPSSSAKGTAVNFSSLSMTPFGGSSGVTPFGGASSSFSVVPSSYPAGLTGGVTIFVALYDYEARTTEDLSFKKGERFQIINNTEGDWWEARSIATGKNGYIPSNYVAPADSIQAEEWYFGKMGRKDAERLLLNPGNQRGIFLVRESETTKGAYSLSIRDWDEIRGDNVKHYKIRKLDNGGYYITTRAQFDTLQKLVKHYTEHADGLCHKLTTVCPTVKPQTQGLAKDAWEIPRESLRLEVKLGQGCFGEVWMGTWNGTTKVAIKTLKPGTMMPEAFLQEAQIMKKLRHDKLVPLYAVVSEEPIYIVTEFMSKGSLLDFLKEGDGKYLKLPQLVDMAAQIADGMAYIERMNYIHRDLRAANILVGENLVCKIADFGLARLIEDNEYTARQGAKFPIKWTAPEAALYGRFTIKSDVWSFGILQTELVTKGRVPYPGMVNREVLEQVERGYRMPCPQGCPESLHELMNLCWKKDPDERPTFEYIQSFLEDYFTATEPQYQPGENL
Method: as §1

LCK = molecular target: T10, LCK (Homo sapiens, UniProt P06239); test: Kinase Selectivity Assay; conditions: read-out: Percent Inhibition at 1 μM; note: ATP at apparent Km or 100 µM
T10 construct: full-length enzymes or catalytically active fragments; purchased Invitrogen
Method: as §1

PDGFRA T674I = molecular target: T11, PDGFRA T674I (Homo sapiens, UniProt P16234, T674I); test: Kinase Selectivity Assay; conditions: read-out: Percent Inhibition at 1 μM; note: ATP at apparent Km or 100 µM
T11 construct: full-length enzymes or catalytically active fragments; purchased Invitrogen
T11 sequence (P16234 24-1089 T674I): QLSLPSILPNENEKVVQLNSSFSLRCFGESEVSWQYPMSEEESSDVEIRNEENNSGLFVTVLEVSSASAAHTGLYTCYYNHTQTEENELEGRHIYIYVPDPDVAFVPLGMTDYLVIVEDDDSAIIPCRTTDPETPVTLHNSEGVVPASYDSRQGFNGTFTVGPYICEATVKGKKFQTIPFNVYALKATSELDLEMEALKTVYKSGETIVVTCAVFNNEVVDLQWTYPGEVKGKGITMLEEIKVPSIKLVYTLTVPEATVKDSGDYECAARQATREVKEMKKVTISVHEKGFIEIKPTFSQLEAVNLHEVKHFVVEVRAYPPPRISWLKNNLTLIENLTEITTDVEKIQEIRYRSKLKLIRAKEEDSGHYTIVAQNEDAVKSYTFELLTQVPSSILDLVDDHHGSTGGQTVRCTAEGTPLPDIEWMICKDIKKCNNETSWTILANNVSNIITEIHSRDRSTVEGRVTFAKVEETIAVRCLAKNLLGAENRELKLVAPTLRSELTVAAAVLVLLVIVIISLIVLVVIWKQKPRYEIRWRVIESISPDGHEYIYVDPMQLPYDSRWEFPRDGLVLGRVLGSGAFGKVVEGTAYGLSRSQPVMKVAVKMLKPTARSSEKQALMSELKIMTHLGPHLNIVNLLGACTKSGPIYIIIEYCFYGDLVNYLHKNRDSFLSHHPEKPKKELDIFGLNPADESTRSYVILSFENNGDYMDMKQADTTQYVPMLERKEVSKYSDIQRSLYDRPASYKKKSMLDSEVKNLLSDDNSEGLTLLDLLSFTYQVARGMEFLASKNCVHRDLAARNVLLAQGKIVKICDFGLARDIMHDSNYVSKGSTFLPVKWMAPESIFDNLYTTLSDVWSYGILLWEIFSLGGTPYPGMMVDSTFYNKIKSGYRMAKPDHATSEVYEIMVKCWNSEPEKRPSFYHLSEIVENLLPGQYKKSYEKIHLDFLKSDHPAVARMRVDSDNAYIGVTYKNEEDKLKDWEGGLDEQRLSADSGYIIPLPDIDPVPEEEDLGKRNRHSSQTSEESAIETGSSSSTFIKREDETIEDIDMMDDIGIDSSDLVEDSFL
Method: as §1

EPHA1 = molecular target: T12, EPHA1 (Homo sapiens, UniProt P21709); test: Kinase Selectivity Assay; conditions: read-out: Percent Inhibition at 1 μM; note: ATP at apparent Km or 100 µM
T12 construct: purchased Invitrogen, Carlsbad, Calif
T12 sequence (P21709 26-976): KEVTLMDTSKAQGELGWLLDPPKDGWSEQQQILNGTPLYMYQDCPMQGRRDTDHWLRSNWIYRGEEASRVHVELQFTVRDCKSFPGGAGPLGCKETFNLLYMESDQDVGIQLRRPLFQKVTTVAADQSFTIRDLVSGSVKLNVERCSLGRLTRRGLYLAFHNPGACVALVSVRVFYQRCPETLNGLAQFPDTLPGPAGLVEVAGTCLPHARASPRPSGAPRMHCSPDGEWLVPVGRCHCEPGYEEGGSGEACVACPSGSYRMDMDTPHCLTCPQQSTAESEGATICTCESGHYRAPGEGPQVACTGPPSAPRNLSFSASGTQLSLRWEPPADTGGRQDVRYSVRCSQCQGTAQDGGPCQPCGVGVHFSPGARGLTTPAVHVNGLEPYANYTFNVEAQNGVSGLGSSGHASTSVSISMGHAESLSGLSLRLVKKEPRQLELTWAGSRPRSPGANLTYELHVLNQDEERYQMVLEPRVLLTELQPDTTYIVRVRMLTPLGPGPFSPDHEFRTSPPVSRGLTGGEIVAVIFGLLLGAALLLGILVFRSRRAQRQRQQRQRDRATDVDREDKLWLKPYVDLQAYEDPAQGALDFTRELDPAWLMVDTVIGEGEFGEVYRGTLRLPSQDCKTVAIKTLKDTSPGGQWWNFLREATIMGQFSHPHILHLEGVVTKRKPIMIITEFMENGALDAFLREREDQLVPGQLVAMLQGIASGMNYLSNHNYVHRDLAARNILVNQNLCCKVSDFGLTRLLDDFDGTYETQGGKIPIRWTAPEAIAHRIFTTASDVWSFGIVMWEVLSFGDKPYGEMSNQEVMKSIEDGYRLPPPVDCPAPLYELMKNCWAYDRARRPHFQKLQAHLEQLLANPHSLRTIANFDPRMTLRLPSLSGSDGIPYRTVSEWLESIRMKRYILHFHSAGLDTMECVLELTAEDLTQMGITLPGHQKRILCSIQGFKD
Method: as §1

ROS1 = molecular target: T13, ROS1 (Homo sapiens, UniProt P08922); test: Kinase Selectivity Assay; conditions: read-out: Percent Inhibition at 1 μM; note: ATP at apparent Km or 100 µM
T13 construct: full-length enzymes or catalytically active fragments; purchased Invitrogen
Method: as §1

KDR (VEGFR2) = molecular target: T14, KDR (VEGFR2) (Homo sapiens, UniProt P35968); test: Kinase Selectivity Assay; conditions: read-out: Percent Inhibition at 1 μM; note: ATP at apparent Km or 100 µM
T14 construct: full-length enzymes or catalytically active fragments; purchased Invitrogen
T14 sequence (P35968 20-1356): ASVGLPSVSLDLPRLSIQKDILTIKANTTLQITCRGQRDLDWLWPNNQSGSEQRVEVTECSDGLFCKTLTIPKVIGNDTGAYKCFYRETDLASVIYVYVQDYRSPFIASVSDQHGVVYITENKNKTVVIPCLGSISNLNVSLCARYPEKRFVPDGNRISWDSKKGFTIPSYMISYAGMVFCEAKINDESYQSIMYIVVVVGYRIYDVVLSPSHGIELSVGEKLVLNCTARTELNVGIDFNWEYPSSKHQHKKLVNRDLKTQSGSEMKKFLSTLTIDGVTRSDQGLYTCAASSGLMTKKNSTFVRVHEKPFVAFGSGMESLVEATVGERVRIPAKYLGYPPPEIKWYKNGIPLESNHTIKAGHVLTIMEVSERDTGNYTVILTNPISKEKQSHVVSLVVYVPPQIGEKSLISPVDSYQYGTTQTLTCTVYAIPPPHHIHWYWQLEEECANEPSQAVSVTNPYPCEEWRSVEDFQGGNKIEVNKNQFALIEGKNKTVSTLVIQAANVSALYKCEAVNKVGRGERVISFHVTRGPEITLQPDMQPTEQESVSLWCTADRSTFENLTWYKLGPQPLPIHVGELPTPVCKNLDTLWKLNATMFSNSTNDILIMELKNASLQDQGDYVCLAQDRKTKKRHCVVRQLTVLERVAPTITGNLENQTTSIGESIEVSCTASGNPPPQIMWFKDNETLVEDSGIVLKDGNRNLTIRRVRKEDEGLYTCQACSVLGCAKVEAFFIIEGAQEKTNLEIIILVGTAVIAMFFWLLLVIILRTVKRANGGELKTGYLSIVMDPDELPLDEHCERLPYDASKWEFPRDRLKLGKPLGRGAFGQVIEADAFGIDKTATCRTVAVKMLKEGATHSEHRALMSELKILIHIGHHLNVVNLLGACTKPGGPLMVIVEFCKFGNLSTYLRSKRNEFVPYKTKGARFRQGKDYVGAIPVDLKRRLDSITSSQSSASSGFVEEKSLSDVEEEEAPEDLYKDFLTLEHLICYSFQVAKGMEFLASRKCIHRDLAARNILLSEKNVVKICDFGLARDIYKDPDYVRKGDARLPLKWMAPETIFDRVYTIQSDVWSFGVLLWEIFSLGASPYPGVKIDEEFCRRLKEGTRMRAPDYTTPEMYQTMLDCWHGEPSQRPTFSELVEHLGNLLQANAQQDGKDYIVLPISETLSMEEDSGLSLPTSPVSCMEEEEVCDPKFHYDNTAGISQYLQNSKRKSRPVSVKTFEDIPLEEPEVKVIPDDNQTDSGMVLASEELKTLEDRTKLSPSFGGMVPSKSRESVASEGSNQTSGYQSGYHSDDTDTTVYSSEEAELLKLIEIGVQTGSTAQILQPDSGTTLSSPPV
Method: as §1

ABL1 E255K = molecular target: T15, ABL1 E255K (Homo sapiens, UniProt P00519, E255K); test: Kinase Selectivity Assay; conditions: read-out: Percent Inhibition at 1 μM
T15 construct: purchased Invitrogen, Carlsbad, Calif
Method: as §1

EPHB1 = molecular target: T16, EPHB1 (Homo sapiens, UniProt P54762); test: Kinase Selectivity Assay; conditions: read-out: Percent Inhibition at 1 μM; note: ATP at apparent Km or 100 µM
T16 construct: purchased Invitrogen, Carlsbad, Calif
Method: as §1

KIT T670I = molecular target: T17, KIT T670I (Homo sapiens, UniProt P10721, T670I); test: Kinase Selectivity Assay; conditions: read-out: Percent Inhibition at 1 μM; note: ATP at apparent Km or 100 µM
T17 construct: full-length enzymes or catalytically active fragments; purchased Invitrogen
Method: as §1

FLT3 = molecular target: T18, FLT3 (Homo sapiens, UniProt P36888); test: Kinase Selectivity Assay; conditions: read-out: Percent Inhibition at 1 μM; note: ATP at apparent Km or 100 µM
T18 construct: full-length enzymes or catalytically active fragments; purchased Invitrogen
Method: as §1

PTK2 (FAK) = molecular target: T19, PTK2 (FAK) (Homo sapiens, UniProt Q05397); test: Kinase Selectivity Assay; conditions: read-out: Percent Inhibition at 1 μM; note: ATP at apparent Km or 100 µM
T19 construct: full-length enzymes or catalytically active fragments; purchased Invitrogen
Method: as §1

FGFR2 = molecular target: T20, FGFR2 (Homo sapiens, UniProt P21802); test: Kinase Selectivity Assay; conditions: read-out: Percent Inhibition at 1 μM; note: ATP at apparent Km or 100 µM
T20 construct: full-length enzymes or catalytically active fragments; purchased Invitrogen
T20 sequence (P21802 22-821): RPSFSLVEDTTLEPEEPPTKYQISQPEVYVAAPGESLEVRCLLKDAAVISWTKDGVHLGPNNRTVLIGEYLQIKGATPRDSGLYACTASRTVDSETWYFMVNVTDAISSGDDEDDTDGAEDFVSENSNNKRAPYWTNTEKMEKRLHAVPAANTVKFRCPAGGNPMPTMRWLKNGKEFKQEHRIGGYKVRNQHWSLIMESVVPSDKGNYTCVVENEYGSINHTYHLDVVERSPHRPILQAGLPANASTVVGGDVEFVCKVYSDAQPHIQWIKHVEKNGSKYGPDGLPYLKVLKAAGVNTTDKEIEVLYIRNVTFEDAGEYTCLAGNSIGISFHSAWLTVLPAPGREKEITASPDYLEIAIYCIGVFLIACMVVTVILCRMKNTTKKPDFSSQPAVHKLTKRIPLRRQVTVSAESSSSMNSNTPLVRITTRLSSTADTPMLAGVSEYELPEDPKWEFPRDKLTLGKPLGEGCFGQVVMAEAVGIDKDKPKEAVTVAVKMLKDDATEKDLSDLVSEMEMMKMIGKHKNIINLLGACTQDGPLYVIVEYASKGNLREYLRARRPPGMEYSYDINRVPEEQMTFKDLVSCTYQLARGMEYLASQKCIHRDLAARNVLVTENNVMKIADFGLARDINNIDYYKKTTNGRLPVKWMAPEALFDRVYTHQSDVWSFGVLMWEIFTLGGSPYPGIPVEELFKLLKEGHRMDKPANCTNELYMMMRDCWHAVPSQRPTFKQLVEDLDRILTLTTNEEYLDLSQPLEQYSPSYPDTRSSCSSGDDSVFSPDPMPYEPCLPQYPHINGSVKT
Method: as §1

recombinant Aurora A = molecular target: T21, recombinant Aurora A (Homo sapiens, UniProt O14965); test: Aurora A (Aurora 2) Inhibition Assay (Z'-Lyte); conditions: 100 μM compound; ATP 10 μM; 1 h
T21 construct: purchased Upstate, Lake Placid, N.Y
T21 sequence (O14965 1-403): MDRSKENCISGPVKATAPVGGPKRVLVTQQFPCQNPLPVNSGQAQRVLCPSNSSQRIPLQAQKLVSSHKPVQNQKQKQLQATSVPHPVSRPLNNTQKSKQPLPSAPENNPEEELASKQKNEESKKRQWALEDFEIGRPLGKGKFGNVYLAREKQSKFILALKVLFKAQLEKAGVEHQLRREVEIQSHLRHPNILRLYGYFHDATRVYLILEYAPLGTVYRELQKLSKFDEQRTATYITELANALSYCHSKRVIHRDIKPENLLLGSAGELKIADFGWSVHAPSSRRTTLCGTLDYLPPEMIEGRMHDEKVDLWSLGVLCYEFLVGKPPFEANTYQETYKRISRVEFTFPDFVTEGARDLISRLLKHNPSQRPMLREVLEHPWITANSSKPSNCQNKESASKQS
Method: Compounds were tested for their potency against recombinant Aurora A (Upstate, Lake Placid, N.Y.) using the PanVera Z'-Lyte kinase assay kit-Ser/[…] peptide (Invitrogen, Carlsbad, Calif.). […] Assays were carried out in half-area 96-well white polystyrene assay plates (Corning, Corning, N.Y.) in a final volume of 20 μl. The reaction was allowed to proceed for 1 h at room temperature in the dark, at which point the development reagent and stop reagent were added according to the manufacturer's instructions. Coumarin (Ex. 400 nm, Em. 465 nm) and fluorescein (Ex. 400 nm, Em. 565 nm) fluorescence values were measured on a SpectraFluor Plus plate reader (Tecan, Durham, N.C.). The emission ratio (coumarin/fluorescein) was determined and used to calculate the percent phosphorylation for each well. […] Typically 20-40% of the substrate was phosphorylated in wells without inhibitor. Dose-response curves of relative Aurora A activity vs. inhibitor concentration were plotted with Grafit (Erithacus Software, Horley, Surrey, UK).

SRC = SRC (Homo sapiens, UniProt P12931); test: Kinase Selectivity Assay; design: full-length enzymes or catalytically active fragments; purchased Invitrogen; conditions: read-out: Percent Inhibition at 1 μM
Method: as §1

| Compound | inhibition at 100 µM (Aurora B kinase) | inhibition at 1 µM (CDK2/cyclin A) | inhibition at 1 µM (FLT1 (VEGFR1)) | inhibition at 1 µM (MAP2K1 (MEK1)) | inhibition at 1 µM (IRAK4) | inhibition at 1 µM (AURKB (Aurora B)) | inhibition at 1 µM (YES1) | inhibition at 1 µM (PDGFRA T674I) | inhibition at 1 µM (EPHA1) | inhibition at 1 µM (ROS1) | inhibition at 1 µM (KDR (VEGFR2)) | inhibition at 1 µM (EPHB1) | inhibition at 1 µM (KIT T670I) | inhibition at 1 µM (FLT3) | inhibition at 1 µM (FGFR2) | inhibition at 100 µM (recombinant Aurora A) | inhibition at 1 µM (SRC) | other results |
| --- | --- | --- | --- | --- | --- | --- | --- | --- | --- | --- | --- | --- | --- | --- | --- | --- | --- | --- |
| Cc1cc(Nc2nc(/C=C/c3ccccc3)nc(N3CCN(C)CC3)c2N)[nH]n1 [Example 10, 6-(4-methylpiperazin-1-yl)-N-(3-methyl-1H-pyrazol-5-yl)-2-[(E)-2-phenylvinyl]pyrimidin-4,5-diamine] | 97% | 8% | 25% | 23% | 14% | 37% | 80% | 65% | 52% | 54% | 88% | 32% | 44% | 93% | 53% | 100% | 85% | inhibition at 1 µM (ABL1): 54%; inhibition at 1 µM (ABL1 T315I): 79%; inhibition at 1 µM (LCK): 81%; inhibition at 1 µM (ABL1 E255K): 53%; inhibition at 1 µM (PTK2 (FAK)): 81% |
| Cc1cc(Nc2cc(N3CCN(C)CC3)nc(/C=C/c3ccccc3)n2)n[nH]1 [Example 31, 6-(4-methylpiperazin-1-yl)-N-(3-methyl-1H-pyrazol-5-yl)-2-[(E)-2-phenylvinyl]pyrimidin-4-amine] | 100% | 8% | 53% | 3% | 63% | 75% | 88% | 88% | 77% | 65% | 96% | 61% | 79% | 98% | 86% | 100% | 96% | – |
